These are literature values, as cited in patent publication US8883846B2, “Synthesis of bicyclic compounds and method for their use as therapeutic agents” (priority 2010, dated 2014).

The structures appear in SMILES notation.

The test system of the data set is influenza A H1N1 viruses, neuraminidase mutation Q136K. The settings on record: Australian and South East Asian influenza A H1N1 viruses; cited from earlier work.

`CCC(CC)[C@H](NC(C)=O)[C@@H]1[C@H](O)[C@@H](C(=O)O)C[C@H]1N=C(N)N` [peramivir]: the reduction in susceptibility is 70 fold.

In the case of `CC(=O)N[C@H]1[C@H]([C@H](O)[C@H](O)CO)OC(C(=O)O)=C[C@@H]1N=C(N)N` [zanamivir], the reduction in susceptibility was 300 fold.
